Measurements published in patent US8217085B2 (priority 2009, dated 2012).
Values joined by “and” are separate entries in the source; they are usually repeats but may differ in a detail not shown here. Equal entries are not always repeated. Where two headings read alike, the source gives them in different places.

How the values were obtained:
[1] = tested on: ATCC strain 43300 Staphylococcus aureus; type: cell-based
Description: (§1) No colonies were observed, indicating total kill.
as §1

[2] = tested on: ATCC strain 43300 Staphylococcus aureus
Description: Additional antibiotic was added every 24 hours.
USP<51> Antimicrobial Effectiveness protocol was used as the template experimental paradigm. […] All concentrations were plated out to the 10^−7 dilutionsto ascertain cfu/ml. […] Additional antibiotic was added at the initial concentration every 24 hours.
ATCC strain 43300 Staphylococcus aureus was streaked out for isolations. An isolated colony was chosen, streaked again and incubated. Isolate was chosen and then diluted to a McFarland standard of one. The estimated value was then taken to inoculate tubes containing growth media and 12, 30 or 60 μg/ml oxacillin with approximately 10^5 cfu/ml. These tubes were incubated and plated for counting cfu.
Material was calculated on a 10 ml volume. Sterile oxacillin was added to each experimental condition to a final concentration of 12, 30 or 60 μg/ml antibiotic.
All tubes were then inoculated with a dilution of the selected ATCC strain 43300 Staphylococcus aureus clone giving a final level of colony forming units of 3.3×10^5/ml (log=5.52). The tubes were incubated at 25° C. and mixed periodically. Antibiotic was re-inoculated every 24 hours at the initial concentration to maintain pressure on the organism. Plating was done at 24, 48, 72, and 120 hours. Each condition was plated by diluting 1 ml of growth material into 9 ml of MLB diluent broth. […] This mixture was serial diluted down to 10^−7 with 1 ml placed in triplicate in a sterile petri dish at each dilution point. 20 mls of TSA was added to each dilution, swirled and allowed to solidify. All dilutions were placed in a 35° C. incubator for 24 to 72 hours. Bacterial colonies on each plate were counted and the average taken then changed into log format. Any cfu/ml observed greater than 3.3×10^5 (log=5.5) were recorded as >3.3×10^5.

[3] = 5% MSM, 12 μg/ml oxacillin, 24 hours
[4] = 5% MSM, 30 μg/ml oxacillin, 24 hours
[5] = 5% MSM, 60 μg/ml oxacillin, 24 hours
[6] = 6% MSM, 12 μg/ml oxacillin, 24 hours
[7] = 6% MSM, 30 μg/ml oxacillin, 24 hours
[8] = 6% MSM, 60 μg/ml oxacillin, 24 hours
[9] = 7% MSM, 12 μg/ml oxacillin, 24 hours
[10] = 7% MSM, 30 μg/ml oxacillin, 24 hours
[11] = 7% MSM, 60 μg/ml oxacillin, 24 hours
[12] = 8% MSM, 12 μg/ml oxacillin, 24 hours
[13] = 8% MSM, 30 μg/ml oxacillin, 24 hours
[14] = 8% MSM, 60 μg/ml oxacillin, 24 hours
[15] = 9% MSM, 12 μg/ml oxacillin, 24 hours
[16] = 9% MSM, 30 μg/ml oxacillin, 24 hours
[17] = 9% MSM, 60 μg/ml oxacillin, 24 hours
[18] = 10% MSM, 12 μg/ml oxacillin, 24 hours
[19] = 10% MSM, 12 μg/ml oxacillin, 48 hours
[20] = 10% MSM, 30 μg/ml oxacillin, 24 hours
[21] = 10% MSM, 60 μg/ml oxacillin, 24 hours
[22] = 11% MSM, 12 μg/ml oxacillin, 24 hours
[23] = 11% MSM, 12 μg/ml oxacillin, 48 hours

CS(C)(=O)=O [MSM, methylsulfonylmethane]
recovery of MRSA after enrichment ([1]; 11% MSM, 60 μg/ml oxacillin, 96 hours): total kill
recovery of MRSA after enrichment ([1]; 13% MSM, 60 μg/ml oxacillin, 120 hours): total kill
recovery of MRSA after enrichment ([1]; 14% MSM, 60 μg/ml oxacillin, 96 hours): total kill
recovery of MRSA after enrichment ([1]; 15% MSM, 30 μg/ml oxacillin, 120 hours): total kill
recovery of MRSA after enrichment ([1]; 15% MSM, 60 μg/ml oxacillin, 72 hours): total kill
recovery of MRSA after enrichment ([1]; 16% MSM, 60 μg/ml oxacillin, 120 hours): total kill
Average Log [2, 3]: 3.91 Log
survival [2, 3]: 8.4 × 10^3 cfu/ml and 8.0 × 10^3 cfu/ml
Average Log ([2]; 5% MSM, 12 μg/ml oxacillin, 48 hours): 3.6 Log
Average Log ([2]; 5% MSM, 12 μg/ml oxacillin, 72 hours): 5.5 Log
Average Log [2, 4]: 2.51 Log
survival [2, 4]: 3.1 × 10^2 cfu/ml and 3.3 × 10^2 cfu/ml
Average Log ([2]; 5% MSM, 30 μg/ml oxacillin, 48 hours): 3.8 Log
Average Log ([2]; 5% MSM, 30 μg/ml oxacillin, 72 hours): 5.5 Log
Average Log [2, 5]: 2.54 Log
survival [2, 5]: 3.5 × 10^2 cfu/ml and 3.3 × 10^2 cfu/ml and 3.6 × 10^2 cfu/ml
Average Log ([2]; 5% MSM, 60 μg/ml oxacillin, 48 hours): 3.5 Log
growth ([2]; 5%, 10% and 16% MSM, no antibiotic, 24 hours): turbid growth
Average Log [2, 6]: 3.92 Log
survival [2, 6]: 8.6 × 10^3 cfu/ml and 8.5 × 10^3 cfu/ml and 8.0 × 10^3 cfu/ml
Average Log ([2]; 6% MSM, 12 μg/ml oxacillin, 48 hours): 3.2 Log
Average Log ([2]; 6% MSM, 12 μg/ml oxacillin, 72 hours): 5.5 Log
Average Log [2, 7]: 2.46 Log
survival [2, 7]: 2.9 × 10^2 cfu/ml
Average Log ([2]; 6% MSM, 30 μg/ml oxacillin, 48 hours): 3.7 Log
Average Log ([2]; 6% MSM, 30 μg/ml oxacillin, 72 hours): 5.5 Log
Average Log [2, 8]: 2.38 Log
survival [2, 8]: 2.4 × 10^2 cfu/ml
Average Log ([2]; 6% MSM, 60 μg/ml oxacillin, 48 hours): 1.8 Log
Average Log [2, 9]: 3.91 Log
survival [2, 9]: 8.2 × 10^3 cfu/ml and 8.5 × 10^3 cfu/ml and 8.3 × 10^3 cfu/ml
Average Log ([2]; 7% MSM, 12 μg/ml oxacillin, 48 hours): 3.9 Log
Average Log ([2]; 7% MSM, 12 μg/ml oxacillin, 72 hours): 5.5 Log
Average Log [2, 10]: 2.98 Log
survival [2, 10]: 9.7 × 10^2 cfu/ml and 9.6 × 10^2 cfu/ml and 9.2 × 10^2 cfu/ml
Average Log ([2]; 7% MSM, 30 μg/ml oxacillin, 48 hours): 2.3 Log
Average Log ([2]; 7% MSM, 30 μg/ml oxacillin, 72 hours): 4.5 Log
Average Log [2, 11]: 2.34 Log
survival [2, 11]: 2.1 × 10^2 cfu/ml and 2.3 × 10^2 cfu/ml
Average Log ([2]; 7% MSM, 60 μg/ml oxacillin, 48 hours): 4.0 Log
Average Log [2, 12]: 3.82 Log
survival [2, 12]: 6.6 × 10^3 cfu/ml and 6.9 × 10^3 cfu/ml
Average Log ([2]; 8% MSM, 12 μg/ml oxacillin, 48 hours): 3.7 Log
Average Log ([2]; 8% MSM, 12 μg/ml oxacillin, 72 hours): 5.5 Log
Average Log [2, 13]: 3.07 Log
survival [2, 13]: 1.18 × 10^3 cfu/ml and 1.16 × 10^3 cfu/ml
Average Log ([2]; 8% MSM, 30 μg/ml oxacillin, 48 hours): 3.1 Log
Average Log ([2]; 8% MSM, 30 μg/ml oxacillin, 72 hours): 5.5 Log
Average Log [2, 14]: 2.67 Log
survival [2, 14]: 4.6 × 10^2 cfu/ml and 5.0 × 10^2 cfu/ml
Average Log ([2]; 8% MSM, 60 μg/ml oxacillin, 48 hours): 2.8 Log
Average Log [2, 15]: 3.72 Log
survival [2, 15]: 5.6 × 10^3 cfu/ml and 5.2 × 10^3 cfu/ml and 5.0 × 10^3 cfu/ml
Average Log ([2]; 9% MSM, 12 μg/ml oxacillin, 48 hours): 3.4 Log
Average Log ([2]; 9% MSM, 12 μg/ml oxacillin, 72 hours): 4.5 Log
Average Log [2, 16]: 3.01 Log
survival [2, 16]: 1.06 × 10^3 cfu/ml and 1.05 × 10^3 cfu/ml and 1.02 × 10^3 cfu/ml
Average Log ([2]; 9% MSM, 30 μg/ml oxacillin, 48 hours): 2.4 Log
Average Log ([2]; 9% MSM, 30 μg/ml oxacillin, 72 hours): 2.9 Log
Average Log [2, 17]: 2.50 Log
survival [2, 17]: 3.2 × 10^2 cfu/ml
Average Log ([2]; 9% MSM, 60 μg/ml oxacillin, 48 hours): 2.2 Log
Average Log [2, 18]: 3.76 Log
survival [2, 18]: 5.8 × 10^3 cfu/ml and 5.6 × 10^3 cfu/ml and 6.0 × 10^3 cfu/ml
Average Log [2, 19]: 2.7 Log
survival [2, 19]: 5.6 × 10^2 cfu/ml
Average Log ([2]; 10% MSM, 12 μg/ml oxacillin, 72 hours): 4.0 Log
Average Log [2, 20]: 3.32 Log
survival [2, 20]: 2.2 × 10^3 cfu/ml and 2.0 × 10^3 cfu/ml
Average Log ([2]; 10% MSM, 30 μg/ml oxacillin, 48 hours): 2.6 Log
Average Log ([2]; 10% MSM, 30 μg/ml oxacillin, 72 hours): 3.9 Log
Average Log [2, 21]: 2.63 Log
survival [2, 21]: 4.2 × 10^2 cfu/ml and 4.4 × 10^2 cfu/ml
Average Log ([2]; 10% MSM, 60 μg/ml oxacillin, 48 hours): 2.2 Log
Average Log [2, 22]: 3.91 Log
survival [2, 22]: 8.2 × 10^3 cfu/ml and 8.5 × 10^3 cfu/ml and 8.0 × 10^3 cfu/ml
Average Log [2, 23]: 2.8 Log
survival [2, 23]: 6.4 × 10^2 cfu/ml and 5.8 × 10^2 cfu/ml and 6.5 × 10^2 cfu/ml
Average Log ([2]; 11% MSM, 12 μg/ml oxacillin, 72 hours): 3.6 Log
Average Log ([2]; 11% MSM, 30 μg/ml oxacillin, 24 hours): 3.57 Log
